Data published in the supplement of paper PMC10307832.

Experiments:
Assay in all cases: relative viability (nuclei count vs DMSO), 5 days (fraction); higher = more cells survive
NCI-H1623 = tested on: NCI-H1623
Procedure, shortened: (§1)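 A single step with final 0.05% Triton X-100, 1% formaldehyde and 1 ug/ml Hoechst fixed the cells and stained nuclei 5 days after treatment. Lung cancer cell lines in 1536-well plates had been treated by pin tool the day after seeding with one drug alone or a fixed anchor-drug dose plus five library-drug doses (not always all listed) in √10 steps, and nuclei were counted on 4× images. Relative viability is the ratio of nuclei in treated wells to nuclei in vehicle wells, taken as the median of duplicate plates.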

NCI-H2009 = tested on: NCI-H2009
Procedure, shortened: as §1

NCI-H1648 = tested on: NCI-H1648
Procedure, shortened: as §1

NCI-H460 = tested on: NCI-H460
Procedure, shortened: as §1

NCI-H522 = tested on: NCI-H522
Procedure, shortened: as §1

NCI-H661 = tested on: NCI-H661
Procedure, shortened: as §1

A549 = tested on: A549
Procedure, shortened: as §1

Calu-6 = tested on: Calu-6
Procedure, shortened: as §1

NCI-H1703 = tested on: NCI-H1703
Procedure, shortened: as §1

EBC-1 = tested on: EBC-1
Procedure, shortened: as §1

IA-LM = tested on: IA-LM
Procedure, shortened: as §1

NCI-H1299 = tested on: NCI-H1299
Procedure, shortened: as §1

O=C(O)c1ccc(-c2c[nH]c3ncc(-c4ccccc4)cc23)cc1C1CCCC1 + COc1cccc2cc(-c3nc([C@H]4CC[C@H](C(=O)O)CC4)n4ncnc(N)c34)[nH]c12 [OSI-027] (partner 0.5 µM)
relative viability (NCI-H1623; first compound 0.04 µM): 0.4 | relative viability (NCI-H1623; first compound 0.1265 µM): 0.455 | relative viability (NCI-H1623; first compound 0.4 µM): 0.449 | relative viability (NCI-H1623; first compound 1.265 µM): 0.432 | relative viability (NCI-H2009; first compound 0.04 µM): 0.69 | relative viability (NCI-H2009; first compound 0.1265 µM): 0.687 | relative viability (NCI-H2009; first compound 0.4 µM): 0.648 | relative viability (NCI-H2009; first compound 1.265 µM): 0.549 | relative viability (NCI-H1648; first compound 0.04 µM): 0.245 | relative viability (NCI-H1648; first compound 0.1265 µM): 0.246 | relative viability (NCI-H1648; first compound 0.4 µM): 0.254 | relative viability (NCI-H1648; first compound 1.265 µM): 0.239 | relative viability (NCI-H460; first compound 0.04 µM): 0.645 | relative viability (NCI-H460; first compound 0.1265 µM): 0.75 | relative viability (NCI-H460; first compound 0.4 µM): 0.683 | relative viability (NCI-H460; first compound 1.265 µM): 0.511 | relative viability (NCI-H522; first compound 0.04 µM): 0.756 | relative viability (NCI-H522; first compound 0.1265 µM): 0.74 | relative viability (NCI-H522; first compound 0.4 µM): 0.56 | relative viability (NCI-H522; first compound 1.265 µM): 0.775 | relative viability (NCI-H661; first compound 0.04 µM): 0.766 | relative viability (NCI-H661; first compound 0.4 µM): 0.718 | relative viability (NCI-H661; first compound 1.265 µM): 0.734

O=C(O)c1ccc(-c2c[nH]c3ncc(-c4ccccc4)cc23)cc1C1CCCC1 + COc1cc2c(Oc3ccc(NC(=O)C4(C(=O)Nc5ccc(F)cc5)CC4)cc3F)ccnc2cc1OCCCN1CCOCC1 [Foretinib] (partner 0.25 µM)
relative viability (NCI-H1623; first compound 0.04 µM): 0.859 | relative viability (NCI-H1623; first compound 0.1265 µM): 0.747 | relative viability (NCI-H1623; first compound 0.4 µM): 0.835 | relative viability (NCI-H1623; first compound 1.265 µM): 0.798 | relative viability (NCI-H2009; first compound 0.04 µM): 1.22 | relative viability (NCI-H2009; first compound 0.1265 µM): 1.22 | relative viability (NCI-H2009; first compound 0.4 µM): 1.22 | relative viability (NCI-H2009; first compound 1.265 µM): 0.968 | relative viability (A549; first compound 0.04 µM): 0.944 | relative viability (A549; first compound 0.1265 µM): 1.07 | relative viability (A549; first compound 0.4 µM): 1.07 | relative viability (A549; first compound 1.265 µM): 0.628 | relative viability (NCI-H460; first compound 0.04 µM): 0.993 | relative viability (NCI-H460; first compound 0.1265 µM): 1.14 | relative viability (NCI-H460; first compound 0.4 µM): 0.962 | relative viability (NCI-H460; first compound 1.265 µM): 0.917 | relative viability (Calu-6; first compound 0.04 µM): 0.872 | relative viability (Calu-6; first compound 0.1265 µM): 0.904 | relative viability (Calu-6; first compound 0.4 µM): 0.815 | relative viability (Calu-6; first compound 1.265 µM): 0.706 | relative viability (NCI-H1703; first compound 0.04 µM): 0.381 | relative viability (NCI-H1703; first compound 0.1265 µM): 0.313 | relative viability (NCI-H1703; first compound 0.4 µM): 0.348 | relative viability (NCI-H1703; first compound 1.265 µM): 0.372 | relative viability (EBC-1; first compound 0.04 µM): 0.112 | relative viability (EBC-1; first compound 0.1265 µM): 0.123 | relative viability (EBC-1; first compound 0.4 µM): 0.119 | relative viability (EBC-1; first compound 1.265 µM): 0.101 | relative viability (IA-LM; first compound 0.04 µM): 1.23 | relative viability (IA-LM; first compound 0.1265 µM): 1.25 | relative viability (IA-LM; first compound 0.4 µM): 1.15 | relative viability (IA-LM; first compound 1.265 µM): 0.864 | relative viability (NCI-H1299; first compound 0.04 µM): 1.12 | relative viability (NCI-H1299; first compound 0.1265 µM): 1.14 | relative viability (NCI-H1299; first compound 0.4 µM): 1.04 | relative viability (NCI-H1299; first compound 1.265 µM): 0.956 | relative viability (NCI-H661; first compound 0.04 µM): 1 | relative viability (NCI-H661; first compound 0.4 µM): 0.971 | relative viability (NCI-H661; first compound 1.265 µM): 0.977

O=C(O)c1ccc(-c2c[nH]c3ncc(-c4ccccc4)cc23)cc1C1CCCC1 + N=C(N)NC(=N)NCCc1ccccc1 [Phenformin] (partner 250 µM)
relative viability (NCI-H1623; first compound 0.04 µM): 0.618 | relative viability (NCI-H1623; first compound 0.1265 µM): 0.575 | relative viability (NCI-H1623; first compound 0.4 µM): 0.615 | relative viability (NCI-H1623; first compound 1.265 µM): 0.564 | relative viability (NCI-H2009; first compound 0.04 µM): 0.519 | relative viability (NCI-H2009; first compound 0.1265 µM): 0.533 | relative viability (NCI-H2009; first compound 0.4 µM): 0.512 | relative viability (NCI-H2009; first compound 1.265 µM): 0.393 | relative viability (A549; first compound 0.04 µM): 0.168 | relative viability (A549; first compound 0.1265 µM): 0.197 | relative viability (A549; first compound 0.4 µM): 0.187 | relative viability (A549; first compound 1.265 µM): 0.0803 | relative viability (NCI-H460; first compound 0.04 µM): 0.536 | relative viability (NCI-H460; first compound 0.1265 µM): 0.526 | relative viability (NCI-H460; first compound 0.4 µM): 0.507 | relative viability (NCI-H460; first compound 1.265 µM): 0.46 | relative viability (NCI-H522; first compound 0.04 µM): 0.686 | relative viability (NCI-H522; first compound 0.1265 µM): 0.724 | relative viability (NCI-H522; first compound 0.4 µM): 0.549 | relative viability (NCI-H522; first compound 1.265 µM): 0.65 | relative viability (NCI-H661; first compound 0.04 µM): 0.292 | relative viability (NCI-H661; first compound 0.4 µM): 0.285 | relative viability (NCI-H661; first compound 1.265 µM): 0.278

C=C1C(=O)O[C@@H](CCCCCCCC)[C@@H]1C(=O)O [C-75] + N=C(N)NC(=N)NCCc1ccccc1 [Phenformin] (partner 250 µM)
relative viability (NCI-H1623; first compound 0.08 µM): 0.613 | relative viability (NCI-H1623; first compound 0.253 µM): 0.652 | relative viability (NCI-H1623; first compound 0.8 µM): 0.584 | relative viability (NCI-H1623; first compound 2.53 µM): 0.542 | relative viability (NCI-H1623; first compound 8 µM): 0.578 | relative viability (NCI-H2009; first compound 0.08 µM): 0.487 | relative viability (NCI-H2009; first compound 0.253 µM): 0.534 | relative viability (NCI-H2009; first compound 0.8 µM): 0.448 | relative viability (NCI-H2009; first compound 2.53 µM): 0.427 | relative viability (NCI-H2009; first compound 8 µM): 0.422 | relative viability (A549; first compound 0.08 µM): 0.185 | relative viability (A549; first compound 0.253 µM): 0.211 | relative viability (A549; first compound 0.8 µM): 0.186 | relative viability (A549; first compound 2.53 µM): 0.119 | relative viability (A549; first compound 8 µM): 0.121 | relative viability (NCI-H460; first compound 0.08 µM): 0.511 | relative viability (NCI-H460; first compound 0.253 µM): 0.534 | relative viability (NCI-H460; first compound 0.8 µM): 0.501 | relative viability (NCI-H460; first compound 8 µM): 0.516 | relative viability (NCI-H522; first compound 0.08 µM): 0.61 | relative viability (NCI-H522; first compound 0.253 µM): 0.382 | relative viability (NCI-H522; first compound 0.8 µM): 0.614 | relative viability (NCI-H522; first compound 8 µM): 0.582 | relative viability (NCI-H661; first compound 0.08 µM): 0.313 | relative viability (NCI-H661; first compound 0.253 µM): 0.271 | relative viability (NCI-H661; first compound 0.8 µM): 0.296 | relative viability (NCI-H661; first compound 2.53 µM): 0.237 | relative viability (NCI-H661; first compound 8 µM): 0.288
